Assay results: patent US20230027929A1, “MrgprX2 Antagonists and Uses Thereof” (Dermira, Inc., priority 2019, published 2023)

Biological target: T1, hMrgpMRGPRX2 (Homo sapiens, UniProt Q96LB1)
T1 construct: expressed in transfected cells
T1 sequence (Q96LB1 1-330): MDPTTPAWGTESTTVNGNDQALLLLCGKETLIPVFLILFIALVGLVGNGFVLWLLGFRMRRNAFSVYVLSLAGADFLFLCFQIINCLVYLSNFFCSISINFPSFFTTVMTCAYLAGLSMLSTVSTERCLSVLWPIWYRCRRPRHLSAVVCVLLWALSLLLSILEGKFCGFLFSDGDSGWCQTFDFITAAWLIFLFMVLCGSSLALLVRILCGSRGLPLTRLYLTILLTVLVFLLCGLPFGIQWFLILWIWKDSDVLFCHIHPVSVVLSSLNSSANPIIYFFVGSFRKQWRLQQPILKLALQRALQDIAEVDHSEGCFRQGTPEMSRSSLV
Assay: FLIPR intracellular calcium mobilization, antagonist activity in recombinant hMrgpMRGPRX2 expressing cells
Type: cell-based
Settings: read-out: Human MrgprX2 Antagonist pIC50 (converted)
In short: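 Antagonist activity was read as inhibition of intracellular calcium mobilization (FLIPR) in recombinant cells expressing human MrgprX2. Potency was also checked in LAD-2 human mast cells with endogenous receptor, and orthologue activity in cells expressing mouse MrgprB2, mouse MrgprA1, and gerbil, Chinese hamster and cynomolgus orthologues.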

IC50 [nM] | Structure (SMILES)
7940 | CC(C)C(=O)Nc1cnc(Oc2ccccc2)cn1 [Compound E217, 2-methyl-N-(5-phenoxypyrazin-2-yl)propanamide]
316 | CC(C)C(=O)Nc1cnc(Oc2cc(F)cc(F)c2)cn1 [Compound E218]
25.1 | CC1(C)CC1C(=O)Nc1cnc(Oc2cc(F)cc(F)c2)cn1 (stereo not drawn) [Compound E219]
63.1 | CC1(C)CC1C(=O)Nc1cnc(Oc2ccc(F)c(F)c2)cn1 (stereo not drawn) [Compound E225]
34.7 | CC1(C)CC1C(=O)Nc1cnc(-c2cc(F)ccc2F)cn1 (stereo not drawn) [Compound E226, N-[5-(2,5-difluorophenyl)pyrazin-2-yl]-2,2-dimethyl-cyclopropanecarboxamide]
95.5 | CC1(C)CC1C(=O)Nc1cnc(-c2cc(F)cc(F)c2)cn1 (stereo not drawn) [Compound E228, N-[5-(3,5-difluorophenyl)pyrazin-2-yl]-2,2-dimethyl-cyclopropanecarboxamide]
6610 | CC1(C)CC1C(=O)Nc1cnc(-c2cccc(F)c2F)cn1 (stereo not drawn) [Compound E229]
288 | CC1(C)CC1C(=O)Nc1cnc(-c2cc(F)cc(C#N)c2)cn1 (stereo not drawn) [Compound E230]
631 | CC(C)N(C)C(=O)Nc1cnc(Oc2cc(F)cc(F)c2)cn1 [Compound E234, 3-[5-(3,5-difluorophenoxy)pyrazin-2-yl]-1-isopropyl-1-methyl-urea]
1410 | CCN(C[C@H](C)O)C(=O)Nc1cnc(Oc2cc(F)cc(F)c2)cn1 [Compound E235]
31.6 | CCN(C[C@@H](O)C(F)(F)F)C(=O)Nc1cnc(Oc2cc(F)cc(F)c2)cn1 [Compound E236]
603 | CCN(C[C@@H](O)C(F)(F)F)C(=O)Nc1cnc(-c2cc(F)ccc2F)cn1 [Compound E237]
45.7 | CN(C[C@@](C)(O)C(F)(F)F)C(=O)Nc1cnc(Oc2cc(F)cc(F)c2)cn1 [Compound E238]
6.61 | CCN(C[C@@H](O)C(F)(F)F)C(=O)Nc1cnc(Oc2cccc(F)c2F)cn1 [Compound E239]
110 | CCN(C[C@@H](O)C(F)(F)F)C(=O)Nc1cnc(Oc2ccc(F)c(F)c2)cn1 [Compound E240]
1.7 | CCN(C[C@@H](O)C(F)(F)F)C(=O)Nc1cnc(Oc2cc(F)ccc2F)cn1 [Compound E241]
7410 | CCN(C[C@@H](O)C(F)(F)F)C(=O)Nc1cnc(Oc2cc(F)cc(F)c2)c(C)n1 [Compound E242]
58.9 | CN(C[C@@H](O)C(F)(F)F)C(=O)Nc1cnc(Oc2cccc(F)c2F)cn1 [Compound E243]
26.9 | CCN(C[C@@H](O)C(F)(F)F)C(=O)Nc1cnc(Oc2c(F)cccc2F)cn1 [Compound E244]
8.51 | CN(C[C@@H](O)C(F)(F)F)C(=O)Nc1cnc(Oc2cc(F)ccc2F)cn1 [Compound E245]
2140 | CCN(C[C@@H](O)C(F)(F)F)C(=O)Nc1cnc(Oc2cccc(C#N)c2F)cn1 [Compound E246]
302 | CCN(C[C@@H](O)C(F)(F)F)C(=O)Nc1cnc(Oc2cccc(F)c2)cn1 [Compound E247]

Structure (SMILES) | IC50 [nM]
CC1(C)C(C(=O)Nc2cc3c(cn2)OCCO3)C1(C)C [Compound E216] | 331
CC1(C)C(C(=O)Nc2cnc(Oc3cc(F)cc(F)c3)cn2)C1(C)C [Compound E220] | 1.58
Cn1cc(Oc2cnc(NC(=O)C3C(C)(C)C3(C)C)cn2)cn1 [Compound E221] | 28.8
CC1(C)C(C(=O)Nc2cnc(Oc3cncc(F)c3)cn2)C1(C)C [Compound E222] | 12.6
CC1(C)C(C(=O)Nc2cnc(Oc3cc(F)cc(C#N)c3)cn2)C1(C)C [Compound E223] | 31.6
CC1(C)C(C(=O)Nc2cnc(Oc3ccc(F)c(F)c3)cn2)C1(C)C [Compound E224] | 3.98
CC1(C)C(C(=O)Nc2cnc(-c3cc(F)cc(F)c3)cn2)C1(C)C [Compound E227] | 33.9
CC1(C)C(C(=O)Nc2cnc(N3CCCC3)cn2)C1(C)C [Compound E233, 2,2,3,3-tetramethyl-N-(5-pyrrolidin-1-ylpyrazin-2-yl)cyclopropanecarboxamide] | 331
